Measurements taken from patent US20200308103A1, “NOVEL CRYSTALS OF HYDROXAMIC ACID DERIVATIVE, PRODUCTION METHOD THEREOF, AND PHARMACEUTICAL COMPOSITION” (FUJIFILM Toyama Chemical Co., Ltd., priority 2016, published 2020).
Read-outs that look alike come from different tables or passages of the source.

Key:
[1] = biological target: uridyldiphospho-3-O-acyl-N-acetylglucosamine deacetylase (LpxC) (Pseudomonas aeruginosa, UniProt P47205); conditions: known from Patent Literature 1; cited from earlier work
Chain of uridyldiphospho-3-O-acyl-N-acetylglucosamine deacetylase (LpxC) (P47205 whole entry): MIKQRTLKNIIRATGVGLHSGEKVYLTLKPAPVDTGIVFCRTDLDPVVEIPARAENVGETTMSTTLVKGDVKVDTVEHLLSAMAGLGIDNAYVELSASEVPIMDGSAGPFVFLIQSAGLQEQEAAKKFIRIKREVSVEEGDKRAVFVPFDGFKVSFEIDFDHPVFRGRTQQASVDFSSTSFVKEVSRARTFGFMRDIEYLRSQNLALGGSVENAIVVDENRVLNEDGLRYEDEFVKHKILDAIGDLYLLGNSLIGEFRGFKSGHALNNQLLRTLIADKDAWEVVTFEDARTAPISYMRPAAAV

[2] = format: physicochemical
Protocol: The type I crystals and the type III crystals were mixed, suspended in acetonitrile, and stirred at 5, 25, or 40° C.
(§1) The mixture was sampled over time, and the crystal form was measured by powder X-ray diffraction.

[3] = Hygroscopic properties (storage, weight change); format: physicochemical
Protocol: The type I crystals and the type III crystals were stored under conditions of 25° C. and a relative humidity of 97%.
These crystals were sampled over time, and the weights of the crystals were measured to determine the rates of change in weight.
Rate of change in weight (%)=((B−A)/A)×100
A: Weight of the crystals before the start of the test
B: Weight of the crystals after the start of the test

[4] = Solubility in aqueous sulfobutyl ether-β-cyclodextrin (SBEβCD) solution; format: physicochemical; conditions: for solubility: aqueous with cosolvent or surfactant or cyclodextrin, thermodynamic from solid, read-out: Solubility (dissolved / not dissolved)
Protocol: 32.4 mL of water for injection was added to 6.00 g of sulfobutyl ether-β-cyclodextrin (CYCLOLAB Cyclodextrin Research & Development Laboratory Ltd.) (hereinafter also referred to as “SBEβCD”), and the solution was then stirred at 25° C. for 10 minutes. After the dissolution of the substance had been confirmed by visual observation, the mixed solution was cooled to 10° C. Thereafter, 0.50 g of type I crystal or type II crystal was added to the reaction mixture, and the obtained solution was then heated stepwise, until the crystal was dissolved in the solution.
32.5 mL of water for injection was added to 6.00 g of SBEβCD, and the solution was then stirred at 25° C. for 10 minutes. After the dissolution of the substance had been confirmed by visual observation, the mixed solution was cooled to 0° C., 5° C. or 10° C. Thereafter, 0.48 g of type 111 crystal was added to the reaction mixture, and the obtained solution was then stirred, until the crystal was dissolved in the solution.

[5] = Stability (2): storage at 60° C. and relative humidity 75%, HPLC purity; format: physicochemical; conditions: relative humidity 75%; for Stability: conclusion in words
Protocol: The type I crystals, the type II crystals, and the type III crystals were stored under conditions of 60° C. and a relative humidity of 75%.
These crystals were sampled over time, and their purity was measured by HPLC.
(§2) Measurement wavelength: 254 nm
Column: Ascentis Express C18, particle size: 5 μm, 4.6 mm in inside diameter×150 mm in length
(§3) Column temperature: 40° C.
(§4) Mobile phase A: water/acetic acid=1000/1 solution
(§5) Mobile phase B: acetonitrile/acetic acid=1000/1 solution

[6] = Physical stability (2): type I + type II crystals suspended in acetonitrile, crystal form by powder X-ray diffraction; format: physicochemical; conditions: acetonitrile (nonaqueous conditions), conclusion in words
Protocol: The type I crystals and the type 11 crystals were mixed, suspended in acetonitrile, and stirred at 5, 25, or 40° C.
as §1

[7] = Stability (1): light irradiation, HPLC purity; format: physicochemical; conditions: for Stability against light: 1,200,000 lx·hr, conclusion in words
Protocol: Test Example 5 Stability (1) The type I crystals, the type II crystals, and the type Ill crystals were placed in a light stability tester and irradiated with light (1,200,000 lx·hr) (light source: D65 lamp (FLR20S-D-EDL-D65/M)).
The purity of the crystals of each type was measured by HPLC.
as §2
Column: Ascentis Express C18 (Sigma-Aldrich Japan), particle diameter: 5 μm, inner diameter 4.6 mm×length 150 mm
as §3, §4, §5

[8] = format: physicochemical; remark: listed apart in the source
Protocol: The type I crystals and the type II crystals were mixed, suspended in a 40% aqueous acetonitrile solution, and stirred at 25° C.
as §1

[9] = 25° C., relative humidity 97%, 4 weeks
[10] = after light irradiation 1,200,000 lx·hr, D65 lamp
[11] = light stability test, before start of test

Compound	Physical stability / crystal transformation [2]	Rate of change in weight (%) [3, 9] [%]	Temperature at which the crystal was dissolved in the solution [4] [°C]	HPLC purity (%) ([5]; 4 weeks)	HPLC purity (%) ([5]; 7 weeks)	HPLC purity (%) ([5]; 13 weeks)	HPLC purity (%) ([5]; before start of test)	Stability [5]	Physical stability / crystal transformation [6]	Stability against light [7]	HPLC purity (%) [7, 10] [%]	HPLC purity (%) [7, 11] [%]	Physical stability / crystal transformation [8]	other results
CNC(=O)[C@@](C)(C(=O)NO)N(C)C(=O)c1ccc(C#Cc2ccc([C@H](O)CO)cc2)cc1 [compound A, (2S)-2-((4-((4-((1S)-1,2-dihydroxyethyl)phenyl)ethynyl)benzoyl)(methyl)amino)-N-hydroxy-N′,2-dimethylmalonamide]														LpxC inhibitory activity [1]: excellent
CNC(=O)[C@@](C)(C(=O)NO)N(C)C(=O)c1ccc(C#Cc2ccc([C@H](O)CO)cc2)cc1 [Type III crystals, (2S)-2-((4-((4-((1S)-1,2-dihydroxyethyl)phenyl)ethynyl)benzoyl)(methyl)amino)-N-hydroxy-N′,2-dimethylmalonamide]	more stable than the type I crystals	0.10	≤ 0	99.3	98.6	94.8	99.5	more stable than the type I crystals	more stable than the type I crystals and the type II crystals	more stable against light than the type I crystals	99.4	99.5		Rate of change in weight (%) ([3]; 25° C., relative humidity 97%, 16 weeks): 0.03%; Rate of change in weight ([3]; 25° C., relative humidity 97%, time not stated): ≤ 0.1%; Hygroscopic properties ([3]; conclusion in words): low; solubility ([4]; 0 °C, 0 ° C.): > 14.8 mg/mL; solubility ([4]; 5 °C, 5 ° C.): > 14.8 mg/mL; HPLC purity (%) ([5]; 13 weeks, listed as type III crystals): approximately 95%; Stability ([5]; listed as type Ill crystals): most stable
CNC(=O)[C@@](C)(C(=O)NO)N(C)C(=O)c1ccc(C#Cc2ccc([C@H](O)CO)cc2)cc1 [Type II crystals, (2S)-2-((4-((4-((1S)-1,2-dihydroxyethyl)phenyl)ethynyl)benzoyl)(methyl)amino)-N-hydroxy-N′,2-dimethylmalonamide]			25	98.7	97.7	91.2	99.1	more stable than the type I crystals	transformed to the type III crystals		98.5	99.1	more stable than the type I crystals	HPLC purity (%) ([5]; 13 weeks, listed as type II crystals): approximately 91%; Stability against light ([7]; listed as type 11 crystals): more stable against light than the type I crystals
CNC(=O)[C@@](C)(C(=O)NO)N(C)C(=O)c1ccc(C#Cc2ccc([C@H](O)CO)cc2)cc1 [Type I crystals, (2S)-2-((4-((4-((1S)-1,2-dihydroxyethyl)phenyl)ethynyl)benzoyl)(methyl)amino)-N-hydroxy-N′,2-dimethylmalonamide, reference compound]	transformed to the type III crystals	0.80	25	98.7	97.6	90.4	99.2		transformed to the type III crystals	reduced	96.1	99.2	transformed to the type II crystals	Rate of change in weight (%) ([3]; 25° C., relative humidity 97%, 13 weeks): 1.09%; Rate of change in weight (%) ([3]; 25° C., relative humidity 97%, 13 weeks, listed as type I crystals): ≥ 1%; solubility ([4]; 10 °C, 10 ° C.): < 15.4 mg/mL; solubility ([4]; 15 °C, 15 ° C.): < 15.4 mg/mL; solubility ([4]; 20 °C, 20 ° C.): < 15.4 mg/mL; solubility ([4]; 25 °C, 25 ° C.): > 15.4 mg/mL; HPLC purity (%) ([5]; 13 weeks, listed as type I crystals): approximately 90%
